Results from paper PMC9635829 (Science Advances, 2022).

Tests used:
OdinAK (AdkA1) [1] = target: T1, OdinAK (AdkA1) (Candidatus Odinarchaeum yellowstonii, UniProt A0AAF0D2B2); test: ITC; format: binding
T1 sequence (A0AAF0D2B2 1-198): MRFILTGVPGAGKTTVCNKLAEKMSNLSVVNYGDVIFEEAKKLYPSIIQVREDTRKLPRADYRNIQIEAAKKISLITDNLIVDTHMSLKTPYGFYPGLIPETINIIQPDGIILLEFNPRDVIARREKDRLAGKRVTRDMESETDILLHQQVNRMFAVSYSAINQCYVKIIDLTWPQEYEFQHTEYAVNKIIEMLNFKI

OdinAK (AdkA1) [2] = target: T1, OdinAK (AdkA1); test: […] real-time NMR; format: biochemical; conditions: 65 °C, 1 mM ATP (or other NTP), 300 μM AMP, 5 mM MgCl2, pH 7.0
OdinAK (AdkA1) [3] = target: T1, OdinAK (AdkA1); test: X-ray crystal structure; format: binding; conditions: ATP/AMP-mimicking inhibitor, spans both substrate sites
[4] = target: adenylate kinase from Odinarchaeota (OdinAK), wild type (Odinarchaeota); test: SEC-MALS

Row | Compound | Kd (OdinAK (AdkA1) [1]) [µM] | also measured
1 | Nc1ncnc2c1ncn2[C@@H]1O[C@H](COP(=O)(O)OP(=O)(O)O)[C@@H](O)[C@H]1O [ADP] | 0.8 ± 0.1 | 
2 | Nc1ncnc2c1ncn2[C@@H]1O[C@H](COP(=O)(O)O)[C@@H](O)[C@H]1O [AMP] |  | 31P real-time NMR (OdinAK (AdkA1) [2]): OdinAK can use GTP and all other NTPs as substrate for phosphorylation of AMP
3 | Nc1ncnc2c1ncn2[C@@H]1O[C@H](COP(=O)(O)OP(=O)(O)OP(=O)(O)O)[C@@H](O)[C@H]1O [ATP] | 0.3 ± 0.1 | 
4 | Nc1ncnc2c1ncn2[C@@H]1O[C@H](COP(=O)(O)OP(=O)(O)OP(=O)(O)OP(=O)(O)OP(=O)(O)OC[C@H]2O[C@@H](n3cnc4c(N)ncnc43)[C@H](O)[C@@H]2O)[C@@H](O)[C@H]1O [Ap5A, P^1,P^5-di(adenosine-5′) pentaphosphate] |  | X-ray crystal structure (OdinAK (AdkA1) [3]): we determined the crystal structure of the enzyme in complex with the tight binding
5 | Nc1ccn([C@@H]2O[C@H](COP(=O)(O)OP(=O)(O)OP(=O)(O)O)[C@@H](O)[C@H]2O)c(=O)n1 [CTP] | 28.7 ± 7 | 
6 | Nc1nc2c(ncn2[C@@H]2O[C@H](COP(=O)(O)OP(=O)(O)OP(=O)(O)O)[C@@H](O)[C@H]2O)c(=O)[nH]1 [GTP] | 7.2 ± 0.6 | 
7 | O=c1ccn([C@@H]2O[C@H](COP(=O)(O)OP(=O)(O)OP(=O)(O)O)[C@@H](O)[C@H]2O)c(=O)[nH]1 [UTP] | 4.6 ± 0.5 | 
8 | Cc1cn([C@H]2C[C@H](O)[C@@H](COP(=O)(O)OP(=O)(O)OP(=O)(O)O)O2)c(=O)[nH]c1=O [dTTP] | 24.2 ± 8 | 
9 | adenylate kinase from Odinarchaeota (OdinAK), wild type (enzyme) |  | stoichiometry N [4]: 3
